Patent US8993527B2, “Methods, compositions, and formulations for preventing or reducing adverse effects in a patient” (Pericor Therapeutics, Inc., priority 2005, dated 2015)

Assays:
[1] = target: T1, NBTI-specific adenosine transport site (UniProt O54698); experiment: [3H]-NBTI binding assay; conditions: read-out: ED50 (50% displacement of bound [3H]-NBTI); 0.5 mg neuronal membrane protein, 0.5 nM [3H]-NBTI, 30 minutes
T1 sequence (O54698 1-457): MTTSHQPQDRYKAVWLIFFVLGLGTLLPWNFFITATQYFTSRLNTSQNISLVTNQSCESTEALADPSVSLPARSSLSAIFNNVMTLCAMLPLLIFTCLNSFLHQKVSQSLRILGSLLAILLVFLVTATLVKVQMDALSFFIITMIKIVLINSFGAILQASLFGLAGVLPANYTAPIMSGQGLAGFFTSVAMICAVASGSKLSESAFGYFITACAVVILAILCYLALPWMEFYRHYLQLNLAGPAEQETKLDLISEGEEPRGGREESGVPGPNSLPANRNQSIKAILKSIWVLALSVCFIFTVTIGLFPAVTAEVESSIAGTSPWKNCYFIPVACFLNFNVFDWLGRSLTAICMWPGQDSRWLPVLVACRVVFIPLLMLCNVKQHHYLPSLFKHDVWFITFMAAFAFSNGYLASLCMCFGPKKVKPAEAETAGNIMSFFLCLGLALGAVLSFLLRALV
Experimental: Increasing concentrations of the test compounds were incubated for 30 minutes with 0.5 mg neuronal membrane protein together with 0.5 nM [^3 H]-NBTI in a Tris buffer (pH 7.4) at room temperature. The assays were quenched and membranes collected by rapid filtration. Filters were then solubilized and radioactivity determined by scintillation counting.

[2] = tested on: isoproterenol (isuprel)-induced arrhythmias; experiment: Suppression of isoproterenol (isuprel)-induced arrhythmias; type: in vivo, rat; conditions: 1000 mg/kg intraperitoneally
Experimental: Five minutes later both animals were anesthetized with 330 mg/kg of chloral hydrate injected intraperitoneally. Then a single EKG lead was attached to each rat for simultaneous recording of the paired rats' electrocardiograms. To produce arrhythmia, each rat was injected subcutaneously with isuprel […].
Beginning 30 minutes after isuprel introduction, the electrocardiograph recording paper speed was run (5 cm/sec) for 10 minutes to count the arrhythmic beats of both animals.

[3] = Phase 2 CABG trial: safety (serum glucose, uric acid, adverse events); type: in vivo, human
Experimental: In addition to the hemodynamic monitoring described above the following tests were performed at screening, on the first post-operative day and at discharge:
1. Hematology included hemoglobin, total white cell count and differential, hematocrit and platelet count.
4. Any adverse events were recorded throughout by the investigator, who assessed their severity and the relationship of these adverse experiences to the treatment.
11. Adverse Effects. The incidence, severity and drug-relatedness of any adverse effects were tabulated by treatment group by decreasing incidence of such effects in the high dose group. Statistical analysis was not performed.

[4] = tested on: myocardial infarct; experiment: Myocardial infarct size in rats after coronary artery ligation; type: in vivo, rat; conditions: bolus plus osmotic mini-pump infusion, three weeks, vs saline
Text: The animals were continuously exposed by infusion of either AICA riboside in saline or saline using osmotic mini-pumps well known to those in the art. After three weeks, the rats were sacrificed and infarct size quantitated by planimarizing stained sections of fixed hearts.

[5] = target: T2, calf intestinal musosa adenosine deaminase (Bos taurus, UniProt P56658); experiment: Adenosine deaminase activity; type: biochemical; conditions: 80 μM adenosine, 10 minutes at 37° C.
T2 construct: 0.002 units of calf intestinal musosa adenosine deaminase; from tissue; host or cells: calf intestinal mucosa
T2 sequence (P56658 whole entry): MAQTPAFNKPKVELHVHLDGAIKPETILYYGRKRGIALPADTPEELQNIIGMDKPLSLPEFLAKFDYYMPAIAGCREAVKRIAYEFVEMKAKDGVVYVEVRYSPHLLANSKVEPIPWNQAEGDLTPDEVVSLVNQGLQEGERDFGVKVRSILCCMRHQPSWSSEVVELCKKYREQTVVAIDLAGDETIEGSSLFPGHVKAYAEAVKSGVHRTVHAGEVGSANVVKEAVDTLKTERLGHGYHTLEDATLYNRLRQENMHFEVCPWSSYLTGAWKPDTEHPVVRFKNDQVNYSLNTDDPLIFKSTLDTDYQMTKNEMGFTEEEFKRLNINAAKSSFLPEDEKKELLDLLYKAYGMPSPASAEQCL
Experimental: Different concentrations of the test compounds were incubated in the assay mixture for 10 minutes at 37° C. The reaction was monitored continuously for oxidation of NADH from the change in absorbance at 340 nm.

[6] = tested on: ischemic myocardium; experiment: Inosine levels in venous blood of dogs during coronary artery occlusion; type: in vivo, dog; conditions: over the 60-minute assay period, vs saline
Text: Thirteen mongrel dogs were anesthetized with phenobarbital. […] C.V. Dis. 20; 55 (1977). […] Two of the surviving saline-treated animals fibrillated. […] That the increase in the levels of adenosine is due, at least in part, to a reduction in the amount of ATP that is converted to inosine was shown by analysis of venous blood from dogs in Example III for inosine levels.

[7] = tested on: HPRT+ neuroblastoma cells; experiment: Adenosine excretion by stimulated HPRT+ neuroblastoma cells; type: cell-based; conditions: 50 μM AICA riboside, calcium ionophore A23187, 1.0 μM deoxycoformycin
Experimental: To induce ATP catabolism, the growth medium was replaced by medium containing micromolar amounts of the calcium ionophore A23187 and 1.0 μM deoxycoformycin.

With `NC(=O)c1ncn([C@@H]2O[C@H](CO)[C@@H](O)[C@H]2O)c1N` [1 (1-110), 5-amino-1-β-D-ribofuranosyl-imidazole-4-carboxamide] as the compound, how does the EC50 [1] read?
The EC50 was greater than 1000 µM.

What about the ventricular fibrillation [2] of the same compound?
The ventricular fibrillation was “complete suppression”.

What about the “SERUM GLUCOSE, MEAN BASELINE” value ([3]; 0.05 mg/kg/min (n = 41)) of the same compound?
The value was 108.5 ± 4.8 mg/dL.

And the “SERUM URIC ACID, MEAN BASELINE” value ([3]; 0.05 mg/kg/min (n = 41))?
Its value is 5.9 ± 0.2 mg/dL.

And the “SERUM GLUCOSE-MEAN CHANGES FROM BASELINE” value ([3]; 0.05 mg/kg/min, 24 HR POST)?
The value was 44.2 ± 7.4 mg/dL.

And the “SERUM URIC ACID-MEAN CHANGES FROM BASELINE” value ([3]; 0.05 mg/kg/min, 24 HR POST)?
Its value is -0.5 ± 0.2 mg/dL.

And the “SERUM GLUCOSE-MEAN CHANGES FROM BASELINE” value ([3]; 0.05 mg/kg/min, DISCHARGE)?
Its value is 18.7 ± 6.3 mg/dL.

And the “SERUM URIC ACID-MEAN CHANGES FROM BASELINE” value ([3]; 0.05 mg/kg/min, DISCHARGE)?
The value was 0.3 ± 0.2 mg/dL.

And the “SERUM GLUCOSE-MEAN CHANGES FROM BASELINE” value ([3]; 0.05 mg/kg/min, ICU + 0)?
Its value is 65.6 + 7.6 mg/dl.

And the “SERUM URIC ACID-MEAN CHANGES FROM BASELINE” value ([3]; 0.05 mg/kg/min, ICU + 0)?
Its value is -0.3 ± 0.1 mg/dL.

What about the “SERUM GLUCOSE-MEAN CHANGES FROM BASELINE” value ([3]; 0.05 mg/kg/min, ICU + 4 HR) of the same compound?
The value was 53.6 + 11.9 mg/dl.

What about the “SERUM URIC ACID-MEAN CHANGES FROM BASELINE” value ([3]; 0.05 mg/kg/min, ICU + 4 HR) of the same compound?
Its value is -0.1 ± 0.1 mg/dL.

And the “SERUM GLUCOSE-MEAN CHANGES FROM BASELINE” value ([3]; 0.05 mg/kg/min, ICU + 8 HR)?
The value was 58.8 + 12.1 mg/dl.

What about the “SERUM URIC ACID-MEAN CHANGES FROM BASELINE” value ([3]; 0.05 mg/kg/min, ICU + 8 HR) of the same compound?
The value was -0.0 ± 0.1 mg/dL.

What about the “SERUM GLUCOSE-MEAN CHANGES FROM BASELINE” value ([3]; 0.05 mg/kg/min, POST CPB) of the same compound?
Its value is 116.5 ± 10.7 mg/dL.

What about the “SERUM URIC ACID-MEAN CHANGES FROM BASELINE” value ([3]; 0.05 mg/kg/min, POST CPB) of the same compound?
The value was -0.6 ± 0.1 mg/dL.

What about the “SERUM GLUCOSE-MEAN CHANGES FROM BASELINE” value ([3]; 0.05 mg/kg/min, PRE CPB) of the same compound?
Its value is 18.6 ± 7.0 mg/dL.

What about the “SERUM URIC ACID-MEAN CHANGES FROM BASELINE” value ([3]; 0.05 mg/kg/min, PRE CPB) of the same compound?
The value was -0.1 ± 0.1 mg/dL.

What about the “SERUM GLUCOSE, MEAN BASELINE” value ([3]; 0.10 mg/kg/min (n = 35)) of the same compound?
Its value is 120.6 ± 7.3 mg/dL.

And the “SERUM URIC ACID, MEAN BASELINE” value ([3]; 0.10 mg/kg/min (n = 35))?
Its value is 5.7 ± 0.2 mg/dL.

What about the “SERUM URIC ACID-MEAN CHANGES FROM BASELINE” value ([3]; 0.10 mg/kg/min, 24 HR POST) of the same compound?
The value was 0.3 ± 0.3 mg/dL.

And the “SERUM GLUCOSE-MEAN CHANGES FROM BASELINE” value ([3]; 0.10 mg/kg/min, DISCHARGE)?
Its value is 19.2 ± 7.0 mg/dL.

What about the “SERUM URIC ACID-MEAN CHANGES FROM BASELINE” value ([3]; 0.10 mg/kg/min, DISCHARGE) of the same compound?
The value was -0.1 ± 0.2 mg/dL.

And the “SERUM GLUCOSE-MEAN CHANGES FROM BASELINE” value ([3]; 0.10 mg/kg/min, ICU + 0)?
Its value is 59.8 + 13.6 mg/dl.

What about the “SERUM URIC ACID-MEAN CHANGES FROM BASELINE” value ([3]; 0.10 mg/kg/min, ICU + 0) of the same compound?
The value was 1.5 ± 0.2 mg/dL.

And the “SERUM GLUCOSE-MEAN CHANGES FROM BASELINE” value ([3]; 0.10 mg/kg/min, ICU + 4 HR)?
The value was 55.5 + 9.6 mg/dl.

What about the “SERUM URIC ACID-MEAN CHANGES FROM BASELINE” value ([3]; 0.10 mg/kg/min, ICU + 4 HR) of the same compound?
Its value is 1.6 ± 0.2 mg/dL.

And the “SERUM GLUCOSE-MEAN CHANGES FROM BASELINE” value ([3]; 0.10 mg/kg/min, ICU + 8 HR)?
The value was 44.4 + 7.5 mg/dl.

What about the “SERUM URIC ACID-MEAN CHANGES FROM BASELINE” value ([3]; 0.10 mg/kg/min, ICU + 8 HR) of the same compound?
Its value is 1.4 ± 0.2 mg/dL.

What about the “SERUM GLUCOSE-MEAN CHANGES FROM BASELINE” value ([3]; 0.10 mg/kg/min, POST CPB) of the same compound?
Its value is 120.6 ± 15.9 mg/dL.

And the “SERUM URIC ACID-MEAN CHANGES FROM BASELINE” value ([3]; 0.10 mg/kg/min, POST CPB)?
Its value is 0.4 ± 0.1 mg/dL.

And the “SERUM GLUCOSE-MEAN CHANGES FROM BASELINE” value ([3]; 0.10 mg/kg/min, PRE CPB)?
Its value is 4.8 ± 3.4 mg/dL.

What about the “SERUM URIC ACID-MEAN CHANGES FROM BASELINE” value ([3]; 0.10 mg/kg/min, PRE CPB) of the same compound?
Its value is 0.4 ± 0.1 mg/dL.

And the “uric acid effects in the initial high dose patients” value ([3]; 0.19 or 0.38 mg/kg/min, five drug-treated patients)?
The value was “significant hyperuricemia and elevated urinary uric acid levels with crystalluria”.

And the “drug-treated patients with adverse events” value ([3]; low dose group (0.05 mg/kg/min))?
The value was 28/41.

And the “reduction of infarct size” value [4]?
The value was 33%.

What about the IC50 [5] of the same compound?
Its IC50 is greater than 5000 µM.

And the inosine levels [6]?
The inosine levels was “more than twofold decrease”.

And the “adenosine secreted vs control cells” value [7]?
The value was “at least twofold more adenosine than control cells”.
